Ten molecules from article PMC12632266, “A dual L-glucose/L-galactose catabolic pathway in Luteolibacter species strain LG18” (Journal of Bacteriology, 2025) can be followed below.

The test system of one assay is T1, His6-LguH.
T1 construct: full-length ORF, N-terminal His6 (pET28a), E. coli BL21 Star (DE3)
The assay can be described thus: coupled LguE/GAPDH, NADH formation at […] nm. In kind it is biochemical, Luteolibacter sp. LG18. The settings on record: 1 mM MgCl2, 100 mM potassium phosphate pH 7.0, 25°C.

In the next assay the test system is T2, His6-LguE.
T2 construct: full-length ORF, N-terminal His6 (pET28a), E. coli BL21 Star (DE3)
The assay can be described thus: coupled LDH, NADH oxidation (pyruvate production). Type of assay: biochemical, Luteolibacter sp. LG18. Particulars: 100 mM potassium phosphate pH 7.0, 25°C. The text has this: coupled LDH, NADH oxidation (pyruvate production) on His6-LguE

The next assay relates to T3, His6-LguD (L-GnDH).
T3 construct: full-length ORF, N-terminal His6 (pET28a), E. coli BL21 Star (DE3); native N-terminus MKTLVLREPG
The assay can be described thus: NAD+ reduction at […] nm. In kind it is biochemical, Luteolibacter sp. LG18. The settings on record: 10 mM Tris-HCl pH 7.5, 25°C.

The target in another assay is T4, His6-LguA (L-GDH) (Luteolibacter sp. LG18, UniProt Z9K5S2U0J3).
T4 construct: full-length ORF, N-terminal His6 (pET28a), E. coli BL21 Star (DE3); native N-terminus METRKLGNTGLDVSV
T4 sequence (Z9K5S2U0J3 21-349): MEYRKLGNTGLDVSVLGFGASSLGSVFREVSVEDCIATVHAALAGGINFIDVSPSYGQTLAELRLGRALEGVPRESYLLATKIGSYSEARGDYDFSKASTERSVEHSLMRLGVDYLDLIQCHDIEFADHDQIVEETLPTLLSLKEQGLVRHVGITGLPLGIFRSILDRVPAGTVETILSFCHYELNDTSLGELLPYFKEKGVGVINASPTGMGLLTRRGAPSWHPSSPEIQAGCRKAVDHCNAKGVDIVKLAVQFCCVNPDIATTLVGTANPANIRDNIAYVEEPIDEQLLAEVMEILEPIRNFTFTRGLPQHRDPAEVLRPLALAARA
The assay can be described thus: NADP+ reduction at […] nm. In kind it is biochemical. Particulars: 10 mM Tris-HCl pH 7.5, 25°C.

The term Km denotes the concentration of substrate that gives half-maximal velocity. With `Nc1ncnc2c1ncn2[C@@H]1O[C@H](COP(=O)(O)OP(=O)(O)OP(=O)(O)O)[C@@H](O)[C@H]1O` [ATP], the Km in the assay on His6-LguH (5 mM KDG, phosphate donor) came out at 55 ± 47 µM. As to `O=C(O)C(=O)C[C@H](O)[C@H](O)CO` [KDG], the Michaelis constant (Km) in the assay with His6-LguH (10 mM PPi) stood at 198 ± 12 µM. With `O=C(O)C(=O)C[C@H](O)[C@H](O)COP(=O)(O)O` [KDPG], the Michaelis constant (Km) in the assay with His6-LguE turned out to be 137 ± 10 µM.

Take `O=C(O)[C@@H](O)[C@H](O)[C@H](O)[C@@H](O)CO` [L-galactonate]: in the assay on His6-LguD (L-GnDH) (1 mM NAD+), the Michaelis-Menten constant (Km) amounted to 2960 ± 230 µM. In the case of `OC[C@@H]1OC(O)[C@@H](O)[C@H](O)[C@@H]1O` (stereo partly drawn) [L-galactose], the Michaelis-Menten constant (Km) on His6-LguA (L-GDH) (1 mM NADP+) amounted to 91.7 µM. `O=C(O)[C@@H](O)[C@H](O)[C@@H](O)[C@@H](O)CO` [L-gluconate]: in the assay on His6-LguD (L-GnDH) (1 mM NAD+), the Km came out at 4300 ± 340 µM. For the molecule `OC[C@@H]1OC(O)[C@@H](O)[C@H](O)[C@H]1O` (stereo partly drawn) [L-glucose], the Michaelis-Menten constant (Km) at His6-LguA (L-GDH) (1 mM NADP+) came out at 7700 ± 490 µM. For the molecule `NC(=O)c1ccc[n+]([C@@H]2O[C@H](COP(=O)(O)OP(=O)(O)OC[C@H]3O[C@@H](n4cnc5c(N)ncnc54)[C@H](OP(=O)(O)O)[C@@H]3O)[C@@H](O)[C@H]2O)c1` [NADP^+], the Michaelis constant (Km) on His6-LguA (L-GDH) (100 mM L-glucose) is 79.3 µM. `NC(=O)c1ccc[n+]([C@@H]2O[C@H](COP(=O)(O)OP(=O)(O)OC[C@H]3O[C@@H](n4cnc5c(N)ncnc54)[C@H](O)[C@@H]3O)[C@@H](O)[C@H]2O)c1` [NAD^+]: the Km in the assay on His6-LguD (L-GnDH) (20 mM L-gluconate) was 450 ± 30 µM. For the molecule `O=P(O)(O)OP(=O)(O)O` [PPi], the Km in the assay with His6-LguH (5 mM KDG, phosphate donor) stood at 306 ± 63 µM.
